For test [1], the system named is Escherichia coli. Description: microbe, parasite or virus in culture.
A short description of test [2]: cytotoxicity in MIN6 insulinoma cells, dose response, cytotoxicity control, cell-based, mouse insulinoma (AID 2122).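 Also: confirmatory high-throughput counterscreen run to flag cytotoxic compounds; mouse MIN-6 beta cells carrying an insulin promoter eGFP reporter.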 It counts as functional.
In test [3] the test system is A-375. Description: A375 melanoma cell viability reduction, dose response, counter-screen for MITF modulator project, cherry-pick samples, set 2 (AID 540335). It counts as functional, cell-based. The conditions noted are these: Homo sapiens.
For test [4], the target named is Microphthalmia-associated transcription factor (Homo sapiens, UniProt O75030). The test is described as follows: TRPM1 promoter luciferase signal decrease, dose response, MITF inhibitor project, cell-based, SK-MEL-5, cherry-picked, set 3 (AID 493073). Type of test: functional.
Test [5] in a line: insulin promoter down-regulators in MIN6 cells, imaging, high-content screening, mouse beta cells (AID 1628). Type of test: functional.
Test [6] relates to INS1. The test is described as follows: beta cell apoptosis inhibitors, cytokine rescue, dose response, luminescence, retest (AID 449756).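 Also: cell death triggered by IL-1 beta plus TNF-alpha plus IFN-gamma mixture; protective hits raise ATP signal compared with cytokine alone wells.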 The settings on record: Rattus norvegicus. Type of test: functional, cell-based.
A short description of test [7]: C. albicans growth with fluconazole, confirmation, fluorescence, retest (AID 2467). It counts as functional, cell-based.
Test [8] in a line: Luminescence Cell-Based Dose Retest to Confirm Inhibitors of Cancer Stem Cells. [Related pubchem assays (depositor defined):AID2717, AID2721]. The settings on record: Homo sapiens. It counts as functional.
The nature of test [9]: NIH-3T3 fibroblast cytotoxicity, dose response, cytotoxicity control, cell-based, fluorescence, Alamar Blue, secondary assay (AID 2327).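 Also: NIH-3T3 mouse fibroblasts cultured with fluconazole at 8 µg/mL.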 Type of test: functional.
The subject of test [10] is Escherichia coli. The test is described as follows: microbe, parasite or virus in culture. The source holds these as a separate data set.
Test [11] can be described thus: cells. Type of test: functional.
In test [12] the test system is Streptococcus sp. 'group A'. The test is described as follows: growth inhibition of control SK(-) GAS strain, dose response, counter-screen for streptokinase expression inhibitor project, luminescence, kanamycin, BacTiterGlo, confirmation (AID 1900). It counts as functional, organism-based.
Test [13] has as its system Streptococcus. The test is described as follows: Group A Streptococcus viability loss, dose response, counter-screen for streptokinase expression inhibitor project, luminescence, BacTiterGlo (AID 1915).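 Also: potency for reduction of bacterial viability or growth.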 It counts as functional, organism-based.
In test [14] the target is CAAX prenyl protease 2 (Homo sapiens, UniProt Q9Y256). Description: human Rce1 protease inhibitors, dose response, biochemical, yeast membranes, quenched-peptide fluorescence, cherry-pick (AID 588849).
The target of test [15] is Induced myeloid leukemia cell differentiation protein Mcl-1 (Homo sapiens, UniProt Q07820). It counts as functional.
Test [16] has as its target T1, Aminopeptidase N (Plasmodium falciparum FcB1/Columbia, UniProt O96935).
T1 sequence (O96935 whole entry): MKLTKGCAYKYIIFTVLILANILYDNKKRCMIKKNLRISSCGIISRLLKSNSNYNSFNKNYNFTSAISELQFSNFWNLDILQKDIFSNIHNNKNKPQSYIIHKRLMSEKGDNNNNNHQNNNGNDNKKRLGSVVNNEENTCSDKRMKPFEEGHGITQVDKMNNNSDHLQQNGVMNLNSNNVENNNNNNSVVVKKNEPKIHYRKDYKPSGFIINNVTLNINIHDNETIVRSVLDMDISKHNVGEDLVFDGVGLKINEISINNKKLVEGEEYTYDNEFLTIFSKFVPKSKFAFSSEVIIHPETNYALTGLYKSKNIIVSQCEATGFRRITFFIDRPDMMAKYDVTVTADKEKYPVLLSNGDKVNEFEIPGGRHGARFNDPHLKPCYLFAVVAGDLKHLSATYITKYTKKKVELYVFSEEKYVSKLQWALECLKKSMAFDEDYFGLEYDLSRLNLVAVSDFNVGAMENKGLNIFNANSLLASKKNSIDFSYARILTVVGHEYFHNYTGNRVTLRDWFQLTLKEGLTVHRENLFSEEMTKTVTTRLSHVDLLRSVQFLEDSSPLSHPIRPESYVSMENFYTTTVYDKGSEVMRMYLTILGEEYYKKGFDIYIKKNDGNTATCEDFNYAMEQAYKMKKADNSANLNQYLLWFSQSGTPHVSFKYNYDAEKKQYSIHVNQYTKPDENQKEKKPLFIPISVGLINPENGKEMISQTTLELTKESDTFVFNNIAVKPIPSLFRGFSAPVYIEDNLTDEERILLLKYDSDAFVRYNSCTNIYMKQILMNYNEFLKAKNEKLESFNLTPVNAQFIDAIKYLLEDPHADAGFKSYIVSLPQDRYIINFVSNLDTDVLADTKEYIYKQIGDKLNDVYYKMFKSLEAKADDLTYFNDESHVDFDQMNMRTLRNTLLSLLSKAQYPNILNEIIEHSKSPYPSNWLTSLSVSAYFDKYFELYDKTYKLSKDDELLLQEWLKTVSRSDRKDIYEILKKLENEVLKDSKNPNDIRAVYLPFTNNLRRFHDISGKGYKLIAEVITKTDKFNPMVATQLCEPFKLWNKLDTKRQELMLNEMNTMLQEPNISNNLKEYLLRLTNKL
Description: P. falciparum M1AAP inhibitors, biochemical, fluorogenic H-Leu-NHMec substrate, 1536-well (AID 1445). Further details: species or system Plasmodium falciparum 3D7, 3D7.

Test [17] has as its target Genome polyprotein (dengue virus type 2, UniProt P29990). Description: Dengue-2 NS5 methyltransferase inhibitors, primary screen, biochemical, confirmation dose response (AID 588689). Type of test: functional.
Test [18] addresses Keap1/Nrf2 (Homo sapiens, UniProt Q14145). The test is described as follows: Keap1-Nrf2 protein-protein interaction inhibitors, dose response, biochemical, fluorescence polarization, cherry-picked samples (AID 588683).
Test [19] addresses Dual specificity tyrosine-phosphorylation-regulated kinase 1A (Rattus norvegicus, UniProt Q63470). Type of test: biochemical, Homo sapiens.
For test [20], the system named is Vero. The test is described as follows: cells. The conditions noted are these: Chlorocebus sabaeus. It counts as functional.
Test [21] has as its system A-375. The test is described as follows: MITF: Counter assay: A375 proliferation Measured in Cell-Based System Using Plate Reader - 2084-03_Inhibitor_Dose_DryPowder_Activity. [Related pubchem assays (depositor defined):AID488944]. The settings on record: Homo sapiens. It counts as functional.
Test [22] deals with Vero. Description: cells. It counts as functional, cell-based. The settings on record: Chlorocebus sabaeus.
The nature of test [23]: cytotoxicity in HMLE control line with eGFP shRNA, dose response, counter-screen for HMLE_sh_ECad selective toxicity project, cell-based, HMLE_sh_eGFP, luminescence (AID 463074).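 Also: HMLE human mammary epithelial cells expressing control shRNA against eGFP.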 It counts as functional, Homo sapiens.
Test [24] deals with Vero. Description: host cell cytotoxicity of antiviral hits, dose response, cytotoxicity control for West Nile virus antiviral project, secondary assay (AID 1650). The conditions noted are these: Chlorocebus sabaeus. It counts as functional.
Test [25] is described as follows: cytotoxicity in HEK-293T cells, dose response, cytotoxicity control for BCR NF-kB inhibitor project, luminescence, B-cell screen hits (AID 489021).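 Also: HEK-293T cells carrying an NF-kB luciferase reporter; cells exposed to compound for about 14 hours before viability readout.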 It counts as functional, cell-based.
Test [26] relates to HeLa. Description: HeLa cell cytotoxicity, dose response, cytotoxicity control for MITF activator project, CellTiter-Glo luminescence, cherry-pick samples (AID 540259). Type of test: functional, cell-based. The settings on record: Homo sapiens.
Test [27] in a line: cytotoxicity toward NIH3T3 fibroblasts, dose response, counter-screen, cell-based, ATP luminescence, mouse fibroblasts (AID 2010).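 Also: cells exposed to compound for about 90 hours before reading.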 Type of test: functional.
Test [28] can be described thus: inhibitors of intracellular T. cruzi replication, confirmation, NIH3T3 host cells, beta-gal luminescence (AID 2044).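 Also: intracellular parasites grown in NIH/3T3 mouse fibroblasts as host cells; luminescent beta-galactosidase reporter signal from transgenic T. cruzi replicating inside host cells; inhibitors lower the luminescence signal.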 It counts as functional, cell-based.
The target in test [29] is Trypsin (Sus scrofa, UniProt P00761). Description: porcine trypsin inhibitors, dose response, selectivity assay for Rce1 protease inhibitor project, biochemical, quenched peptide fluorescence, cherry-pick (AID 488789).
The test system of test [30] is HEK293. The test is described as follows: cells. The settings on record: Homo sapiens.
Test [31] relates to HEK293. The test is described as follows: cells. The conditions noted are these: Homo sapiens. The source holds these as a separate data set.
Test [32] can be described thus: Counterscreen for activators of the function of SWI/SNF related, matrix associated, actin dependent regulator of chromatin, subfamily a, member 2 (SMARCA2, BRM): Luminescence-based cell-based high throughput dose response assay to identify non-selective compounds using the VP16 reporter assay. It counts as functional.
The target in test [33] is SWI/SNF-related matrix-associated actin-dependent regulator of chromatin subfamily A member 2 (Homo sapiens, UniProt P51531). Description: Luminescence-based cell-based high throughput dose response assay to identify activators of the function of SWI/SNF related, matrix associated, actin dependent regulator of chromatin, subfamily a, member 2 (SMARCA2, BRM). Type of test: functional.

Activity calls are given as the source filed them. Where only a bound is given, the exact number is not on record here.

Sequence of CAAX prenyl protease 2 (Q9Y256 whole entry): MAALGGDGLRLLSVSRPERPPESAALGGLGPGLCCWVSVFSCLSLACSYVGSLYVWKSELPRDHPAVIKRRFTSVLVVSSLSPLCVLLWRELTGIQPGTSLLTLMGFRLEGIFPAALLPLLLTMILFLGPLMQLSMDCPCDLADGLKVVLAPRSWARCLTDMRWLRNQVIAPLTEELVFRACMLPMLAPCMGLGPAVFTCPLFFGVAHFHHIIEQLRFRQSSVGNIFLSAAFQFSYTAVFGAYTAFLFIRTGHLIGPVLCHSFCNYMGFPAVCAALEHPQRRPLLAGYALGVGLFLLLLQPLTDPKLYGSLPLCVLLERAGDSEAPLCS
Sequence of Microphthalmia-associated transcription factor (O75030 whole entry): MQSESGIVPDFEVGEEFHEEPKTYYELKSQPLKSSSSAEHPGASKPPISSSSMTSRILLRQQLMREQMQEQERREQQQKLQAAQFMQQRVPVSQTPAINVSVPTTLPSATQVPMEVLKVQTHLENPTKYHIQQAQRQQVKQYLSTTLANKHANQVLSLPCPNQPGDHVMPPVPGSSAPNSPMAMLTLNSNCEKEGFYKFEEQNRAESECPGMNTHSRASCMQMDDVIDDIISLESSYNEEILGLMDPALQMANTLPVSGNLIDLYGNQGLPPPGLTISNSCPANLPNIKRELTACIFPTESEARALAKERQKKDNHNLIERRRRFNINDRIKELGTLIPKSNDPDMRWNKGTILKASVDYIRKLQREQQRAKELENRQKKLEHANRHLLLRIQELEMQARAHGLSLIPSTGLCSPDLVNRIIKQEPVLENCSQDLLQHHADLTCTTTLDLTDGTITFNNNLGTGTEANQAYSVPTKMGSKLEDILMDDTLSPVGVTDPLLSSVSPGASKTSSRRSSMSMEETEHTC
Sequence of SWI/SNF-related matrix-associated actin-dependent regulator of chromatin subfamily A member 2 (P51531 whole entry): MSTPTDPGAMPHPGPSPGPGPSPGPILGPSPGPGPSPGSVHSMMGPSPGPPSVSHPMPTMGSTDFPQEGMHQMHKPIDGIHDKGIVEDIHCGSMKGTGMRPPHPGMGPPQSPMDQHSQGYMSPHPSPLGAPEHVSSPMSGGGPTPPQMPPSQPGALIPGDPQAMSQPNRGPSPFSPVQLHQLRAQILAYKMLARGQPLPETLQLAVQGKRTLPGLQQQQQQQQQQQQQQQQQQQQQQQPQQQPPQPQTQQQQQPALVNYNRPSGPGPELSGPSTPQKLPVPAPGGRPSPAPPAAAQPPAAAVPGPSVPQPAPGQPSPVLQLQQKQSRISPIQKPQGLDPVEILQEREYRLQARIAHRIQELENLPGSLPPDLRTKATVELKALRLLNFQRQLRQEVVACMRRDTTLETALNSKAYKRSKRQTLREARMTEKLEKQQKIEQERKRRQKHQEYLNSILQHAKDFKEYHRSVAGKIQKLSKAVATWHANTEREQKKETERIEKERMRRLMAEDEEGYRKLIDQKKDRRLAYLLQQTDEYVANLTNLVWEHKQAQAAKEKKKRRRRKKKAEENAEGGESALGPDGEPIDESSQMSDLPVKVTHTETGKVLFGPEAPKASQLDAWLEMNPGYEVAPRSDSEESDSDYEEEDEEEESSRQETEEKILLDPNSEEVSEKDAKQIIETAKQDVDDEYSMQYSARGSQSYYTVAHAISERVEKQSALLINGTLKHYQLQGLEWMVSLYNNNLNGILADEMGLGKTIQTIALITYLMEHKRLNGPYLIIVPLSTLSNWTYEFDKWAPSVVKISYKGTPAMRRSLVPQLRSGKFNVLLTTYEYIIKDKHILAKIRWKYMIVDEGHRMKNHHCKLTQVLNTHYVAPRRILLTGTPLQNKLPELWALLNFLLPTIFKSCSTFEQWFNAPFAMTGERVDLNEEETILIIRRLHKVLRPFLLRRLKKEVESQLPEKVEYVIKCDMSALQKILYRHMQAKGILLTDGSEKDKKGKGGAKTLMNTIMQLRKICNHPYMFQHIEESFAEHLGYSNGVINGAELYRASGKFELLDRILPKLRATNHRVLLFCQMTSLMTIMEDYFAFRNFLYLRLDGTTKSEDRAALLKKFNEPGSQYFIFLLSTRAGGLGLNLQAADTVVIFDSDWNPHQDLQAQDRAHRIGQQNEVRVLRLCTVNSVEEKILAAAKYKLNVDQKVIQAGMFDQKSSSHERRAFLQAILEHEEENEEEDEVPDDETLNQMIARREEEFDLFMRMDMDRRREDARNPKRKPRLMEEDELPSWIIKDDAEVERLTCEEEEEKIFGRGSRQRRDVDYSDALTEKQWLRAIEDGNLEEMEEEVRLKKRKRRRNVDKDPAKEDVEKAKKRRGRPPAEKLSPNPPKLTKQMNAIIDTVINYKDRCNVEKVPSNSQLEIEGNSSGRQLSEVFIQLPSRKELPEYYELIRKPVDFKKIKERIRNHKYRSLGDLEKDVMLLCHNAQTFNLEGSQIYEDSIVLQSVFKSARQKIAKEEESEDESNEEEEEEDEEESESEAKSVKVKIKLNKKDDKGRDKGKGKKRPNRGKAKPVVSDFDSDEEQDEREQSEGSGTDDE
Sequence of Induced myeloid leukemia cell differentiation protein Mcl-1 (Q07820 whole entry): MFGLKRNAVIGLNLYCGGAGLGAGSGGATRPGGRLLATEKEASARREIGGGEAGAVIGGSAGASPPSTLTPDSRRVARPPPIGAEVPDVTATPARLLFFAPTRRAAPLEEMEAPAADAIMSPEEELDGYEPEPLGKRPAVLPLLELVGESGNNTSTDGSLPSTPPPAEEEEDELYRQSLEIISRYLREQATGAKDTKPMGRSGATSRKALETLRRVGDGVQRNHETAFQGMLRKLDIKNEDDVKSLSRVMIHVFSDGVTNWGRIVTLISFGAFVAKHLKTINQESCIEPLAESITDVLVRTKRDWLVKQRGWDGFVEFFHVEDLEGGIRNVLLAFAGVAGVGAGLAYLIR
Sequence of Trypsin (P00761 whole entry): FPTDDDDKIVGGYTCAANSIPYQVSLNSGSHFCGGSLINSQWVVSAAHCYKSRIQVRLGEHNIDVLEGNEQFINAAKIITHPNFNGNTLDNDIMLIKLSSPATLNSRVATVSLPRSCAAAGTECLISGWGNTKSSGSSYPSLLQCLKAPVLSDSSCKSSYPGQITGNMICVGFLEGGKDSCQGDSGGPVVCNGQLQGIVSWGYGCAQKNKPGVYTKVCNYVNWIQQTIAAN
Sequence of Genome polyprotein (P29990 2492-3391 limits assumed): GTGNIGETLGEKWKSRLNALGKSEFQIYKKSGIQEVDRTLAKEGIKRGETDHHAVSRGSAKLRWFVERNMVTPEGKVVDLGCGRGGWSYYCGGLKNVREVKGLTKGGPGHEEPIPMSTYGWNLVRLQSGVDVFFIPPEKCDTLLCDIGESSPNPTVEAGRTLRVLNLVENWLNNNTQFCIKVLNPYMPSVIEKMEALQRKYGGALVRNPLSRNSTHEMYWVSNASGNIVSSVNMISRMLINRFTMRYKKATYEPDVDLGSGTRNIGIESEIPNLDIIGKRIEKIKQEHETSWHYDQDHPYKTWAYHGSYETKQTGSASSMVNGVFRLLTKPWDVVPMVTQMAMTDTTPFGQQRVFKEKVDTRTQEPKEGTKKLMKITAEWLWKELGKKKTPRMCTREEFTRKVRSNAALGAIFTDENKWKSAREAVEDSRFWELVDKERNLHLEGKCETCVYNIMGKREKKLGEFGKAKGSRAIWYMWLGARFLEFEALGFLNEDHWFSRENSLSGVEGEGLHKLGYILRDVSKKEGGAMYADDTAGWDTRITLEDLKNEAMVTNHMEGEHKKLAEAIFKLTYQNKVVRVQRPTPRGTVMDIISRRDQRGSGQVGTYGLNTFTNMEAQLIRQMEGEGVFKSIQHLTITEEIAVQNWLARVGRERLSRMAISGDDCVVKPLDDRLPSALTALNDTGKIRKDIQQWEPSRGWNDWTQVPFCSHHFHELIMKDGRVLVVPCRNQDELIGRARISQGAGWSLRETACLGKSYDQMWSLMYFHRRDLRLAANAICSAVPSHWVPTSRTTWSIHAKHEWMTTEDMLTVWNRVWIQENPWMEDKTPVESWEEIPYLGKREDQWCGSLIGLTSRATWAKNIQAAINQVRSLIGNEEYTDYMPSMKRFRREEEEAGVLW

Turning to `COC(=O)Nc1ccc2c(c1)N(C(=O)CCN1CCOCC1)c1ccccc1S2`, the AC50 in test [1] is 50.2 µM (active).

For the compound `Cc1ccc(C(C)C)c(OCc2n[n+](CC(=O)c3ccc(OC(F)F)cc3)c3n2CCCCC3)c1`, the IC50 in [2] is 1.13 µM (active); in test [5], 1.27 µM (active). In addition, the AC50 is 20.1 µM (active) in test [3], 9.17 µM (active) in test [4], 3.09 µM (active) in [6] and 5.68 µM (active) in test [8]. The EC50 is 0.74 µM (active) in test [7] and > 150 µM (inactive) in [9].

For the compound `CNC(=S)N1CCN(c2c(F)cc3c(=O)c(C(=O)O)cn(C4CC4)c3c2OC)CC1C` (stereo not given), in test [10], the AC50 was 1.44 µM (active). Besides, the IC50 in test [11] is 2.57 µM (active). Besides, the half-maximal effective concentration (EC50) was 0.179 µM (active) in test [12] and 0.229 µM (active) in [13].

Turning to `C/C=C(/C)C(=O)O[C@H]1[C@@H](O)c2c(ccc3ccc(=O)oc23)OC1(C)C`, in test [14], the AC50 was 24.9 µM (active).

Take `O=C1Nc2ccc(Br)cc2/C1=C1/SC(=S)N(NS(=O)(=O)c2ccccc2)C1=O`: the half-inhibitory concentration (IC50) is 3 µM (not active) in test [15], < 1 µM (active) in test [16] and 23.6 µM (active) in test [17]. Further, the concentration at half-maximal activity (AC50) in test [18] was 12.2 µM (active).

`Cc1sc(NC(=O)c2ccco2)nc1-c1ccccc1`: in test [19], the half-maximal activity concentration (AC50) is 3.67 µM (active).

For `CCN1CCN(CCCNC(=O)c2ccc3c(Cl)c4c(nc3c2)CCCC4)CC1`, the concentration at half-maximal activity (AC50) in [3] and in [21] was > 11 µM (active) in each case. The CC50 in test [20] was 18.7 µM (active).

`Cc1nc2ccccn2c1C(=O)/C=C/c1cccc([N+](=O)[O-])c1`: the half-maximal inhibitory concentration (IC50) was 17.2 µM (active) in test [22] and > 80 µM (inactive) in test [25]. The half-maximal activity concentration (AC50) in test [3] was > 35 µM (active); in [4], 6.9 µM (active); in test [21], > 35 µM (active); in test [6], 8.14 µM (active); in test [23] it was 56.9 µM (active); in test [8], 26.6 µM (active). In addition, the cytotoxic concentration (CC50) in [20] was 24 µM (active); in test [24] it was 5.91 µM (active).

Consider `COC(=O)C1C(O)C(C)C(O)C(C)(O)/C=C\C=C(/C)C(=O)Nc2c(C)c(OC(C)=O)c3c(c2O)C(=O)C(C)=C2OCOC(=C23)/C(C)=C/C(C)(O)C(O)C(C)C1O` (stereo not given), for which, in test [10], the AC50 was > 150 µM (inactive).

As to `Cn1c(-c2ncc(F)cc2F)cc2onc(-c3c(F)cccc3Cl)c2c1=O`, the concentration at half-maximal activity (AC50) in [26] was 98 µM (active).

In the case of `COc1ccc(/C=C/c2nc3ccccc3n2Cc2ccccc2OC)cc1`, the AC50 was 3.33 µM (active) in [14] and 3.43 µM (active) in test [29]. Moreover, the half-maximal effective concentration (EC50) in test [27] is > 60 µM (inconclusive); in test [28], 0.663 µM (active).

On to `NC(Cc1ccc(C(F)(F)F)cc1)c1csc(NC(=O)Nc2ccccc2Oc2ccccc2)n1` (stereo not given), for which the EC50 in test [30] and in [31] was > 59.6 µM (inactive) each time.

Regarding `Cc1nc(COC(=O)c2c(C)nn(-c3ccccc3)c2C)cs1`, the EC50 in test [32] and in [33] was > 91.1 µM (inactive) each time. In addition, in [26], the concentration at half-maximal activity (AC50) is 76 µM (active).

Turning to `CCOC(=O)C1=C(C)c2ccccc2OC1(C(=O)OCC)C(C)C` (stereo not given), the AC50 in test [1] was 379 µM (active).

Turning to `Cc1oc2ncnc(N)c2c1C`, in test [19], the concentration at half-maximal activity (AC50) is 1.4 µM (active).
